Four compounds from ChEMBL document CHEMBL1201862, “PubChem BioAssay data set” (2004) can be followed below.

Experiment [1] addresses Casein kinase I isoform alpha (Homo sapiens, UniProt P48729). In kind it is functional.
Experiment [2] has as its target Glycogen synthase kinase-3 alpha (Homo sapiens, UniProt P49840). Format: functional.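 Further: GSK3A result taken from a broad kinome-wide kinase panel.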
Experiment [3] concerns the target Calcium/calmodulin-dependent protein kinase type II subunit alpha (Homo sapiens, UniProt Q9UQM7). The experiment can be described thus: Navigating the Kinome. Panel member name: CAMK2A. In kind it is functional.
In experiment [4] the target is Cyclin-dependent kinase 8 (Homo sapiens, UniProt P49336). In words: Navigating the Kinome. Panel member name: CDK8. Format: functional.
Experiment [5] has as its target BDNF/NT-3 growth factors receptor (Homo sapiens, UniProt Q16620). Format: functional.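 Further: NTRK2 measured as one member of a broad kinome-wide kinase profiling panel.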
Experiment [6] concerns the target Death-associated protein kinase 3 (Homo sapiens, UniProt O43293). Format: functional.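 Further: measured as one member of a kinome-wide profiling panel.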
Experiment [7] deals with High affinity nerve growth factor receptor (Homo sapiens, UniProt P04629). Format: functional.
The target in experiment [8] is Tyrosine-protein kinase Fyn (Homo sapiens, UniProt P06241). In kind it is functional.
Experiment [9] deals with Tyrosine-protein kinase ABL1 (Homo sapiens, UniProt P00519). Format: functional.
The target of experiment [10] is Tyrosine-protein kinase receptor TYRO3 (Homo sapiens, UniProt Q06418). Format: functional.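 Further: TYRO3 value obtained as one member of a kinome-wide profiling panel.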
Experiment [11] concerns the target Hepatocyte growth factor receptor (Homo sapiens, UniProt P08581). In kind it is functional.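 Further: kinase panel profiling across the kinome, with MET as the panel member.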
For experiment [12], the target named is Macrophage-stimulating protein receptor (Homo sapiens, UniProt Q04912). In words: Navigating the Kinome. Panel member name: MST1R. In kind it is functional.
Experiment [13] has as its target Fibroblast growth factor receptor 1 (Homo sapiens, UniProt P11362). Format: functional.
Experiment [14] has as its target Dual specificity protein kinase CLK2 (Homo sapiens, UniProt P49760). Format: functional.
Experiment [15] has as its target Mitogen-activated protein kinase kinase kinase kinase 4 (Homo sapiens, UniProt O95819). Format: functional.
Experiment [16] addresses T1, Receptor-type tyrosine-protein kinase FLT3 (Homo sapiens, UniProt P36888).
T1 sequence (P36888 whole entry): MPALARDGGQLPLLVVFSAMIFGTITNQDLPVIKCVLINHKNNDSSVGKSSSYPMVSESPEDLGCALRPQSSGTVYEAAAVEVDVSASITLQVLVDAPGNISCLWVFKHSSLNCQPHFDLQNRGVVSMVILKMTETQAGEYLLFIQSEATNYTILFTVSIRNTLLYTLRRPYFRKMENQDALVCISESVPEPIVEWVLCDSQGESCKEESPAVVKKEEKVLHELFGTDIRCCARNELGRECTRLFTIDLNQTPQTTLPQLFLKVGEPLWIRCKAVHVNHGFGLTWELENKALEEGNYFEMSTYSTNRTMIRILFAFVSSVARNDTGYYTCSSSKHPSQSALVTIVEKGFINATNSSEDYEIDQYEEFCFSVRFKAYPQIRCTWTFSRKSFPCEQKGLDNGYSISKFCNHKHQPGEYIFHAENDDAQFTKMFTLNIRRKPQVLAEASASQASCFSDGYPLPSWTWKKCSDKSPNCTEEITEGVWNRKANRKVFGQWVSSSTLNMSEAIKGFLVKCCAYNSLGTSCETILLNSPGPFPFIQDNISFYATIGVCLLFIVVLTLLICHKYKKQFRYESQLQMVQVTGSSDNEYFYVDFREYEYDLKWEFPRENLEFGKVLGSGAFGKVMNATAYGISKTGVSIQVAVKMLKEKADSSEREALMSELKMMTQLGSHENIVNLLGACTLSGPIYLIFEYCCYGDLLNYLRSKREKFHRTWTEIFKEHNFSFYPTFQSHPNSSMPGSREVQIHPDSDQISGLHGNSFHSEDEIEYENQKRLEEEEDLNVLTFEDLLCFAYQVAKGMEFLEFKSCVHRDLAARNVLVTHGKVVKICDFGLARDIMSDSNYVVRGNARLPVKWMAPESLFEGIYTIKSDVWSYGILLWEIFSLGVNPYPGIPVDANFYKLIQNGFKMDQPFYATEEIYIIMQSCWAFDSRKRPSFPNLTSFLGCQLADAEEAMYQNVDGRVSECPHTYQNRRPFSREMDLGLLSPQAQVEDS
In kind it is functional.

In experiment [17] the target is Cyclin-dependent kinase 7 (Homo sapiens, UniProt P50613). In kind it is functional.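 Further: value comes from a kinome-wide kinase profiling panel in which CDK7 is one member.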
Experiment [18] has as its target T2, Mitochondrial peptide methionine sulfoxide reductase (Bos taurus, UniProt P54149).
T2 sequence (P54149 whole entry): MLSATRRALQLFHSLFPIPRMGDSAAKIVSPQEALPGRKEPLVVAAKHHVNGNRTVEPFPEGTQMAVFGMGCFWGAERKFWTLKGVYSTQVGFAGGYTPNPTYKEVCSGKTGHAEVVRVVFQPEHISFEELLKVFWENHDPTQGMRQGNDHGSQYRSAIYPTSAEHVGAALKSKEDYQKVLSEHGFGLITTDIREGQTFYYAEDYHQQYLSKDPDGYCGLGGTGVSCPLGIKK
In words: Absorbance-based biochemical high throughput dose response assay for activators of Methionine sulfoxide reductase A (MsrA). Format: functional.

The target in experiment [19] is T3, Tyrosyl-DNA phosphodiesterase 2 (Homo sapiens, UniProt O95551).
T3 sequence (O95551 whole entry): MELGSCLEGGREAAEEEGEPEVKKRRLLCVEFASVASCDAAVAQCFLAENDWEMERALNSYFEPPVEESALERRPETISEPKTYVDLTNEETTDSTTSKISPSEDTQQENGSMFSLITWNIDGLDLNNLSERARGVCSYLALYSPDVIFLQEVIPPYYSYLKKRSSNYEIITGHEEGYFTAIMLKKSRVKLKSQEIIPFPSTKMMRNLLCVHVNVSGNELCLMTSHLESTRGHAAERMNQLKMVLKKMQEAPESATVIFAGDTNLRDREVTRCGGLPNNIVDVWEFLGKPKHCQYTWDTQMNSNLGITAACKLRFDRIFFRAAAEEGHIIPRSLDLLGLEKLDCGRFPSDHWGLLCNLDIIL
The experiment can be described thus: human TDP2 enzyme inhibitors, dose response, biochemical, epi absorbance, IC50 (AID 743297).

Each structure is given as a SMILES string. Active and inactive are the calls of the source. Bounds are passed on as bounds.

Chain of BDNF/NT-3 growth factors receptor (Q16620 whole entry): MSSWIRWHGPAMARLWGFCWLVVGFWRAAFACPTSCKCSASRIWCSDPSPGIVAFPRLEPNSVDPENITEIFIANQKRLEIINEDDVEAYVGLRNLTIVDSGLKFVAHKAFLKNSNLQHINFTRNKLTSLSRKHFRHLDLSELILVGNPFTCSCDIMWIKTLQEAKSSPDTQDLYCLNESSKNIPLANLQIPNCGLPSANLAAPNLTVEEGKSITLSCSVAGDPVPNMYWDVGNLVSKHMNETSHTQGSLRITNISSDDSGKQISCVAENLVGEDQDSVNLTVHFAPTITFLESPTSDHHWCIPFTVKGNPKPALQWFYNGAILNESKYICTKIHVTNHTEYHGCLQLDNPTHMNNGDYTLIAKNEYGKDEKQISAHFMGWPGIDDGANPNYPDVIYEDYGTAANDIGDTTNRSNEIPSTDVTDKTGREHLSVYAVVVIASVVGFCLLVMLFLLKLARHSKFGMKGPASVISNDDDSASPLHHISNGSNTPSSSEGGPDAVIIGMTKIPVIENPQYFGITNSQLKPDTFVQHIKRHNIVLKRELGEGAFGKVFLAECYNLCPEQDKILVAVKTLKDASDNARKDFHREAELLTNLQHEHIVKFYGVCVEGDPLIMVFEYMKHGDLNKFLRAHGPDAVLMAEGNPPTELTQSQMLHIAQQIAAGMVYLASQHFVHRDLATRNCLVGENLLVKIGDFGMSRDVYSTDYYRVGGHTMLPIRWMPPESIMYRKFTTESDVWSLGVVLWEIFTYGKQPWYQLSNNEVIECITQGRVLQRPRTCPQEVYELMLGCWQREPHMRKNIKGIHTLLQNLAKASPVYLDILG
Chain of Glycogen synthase kinase-3 alpha (P49840 whole entry): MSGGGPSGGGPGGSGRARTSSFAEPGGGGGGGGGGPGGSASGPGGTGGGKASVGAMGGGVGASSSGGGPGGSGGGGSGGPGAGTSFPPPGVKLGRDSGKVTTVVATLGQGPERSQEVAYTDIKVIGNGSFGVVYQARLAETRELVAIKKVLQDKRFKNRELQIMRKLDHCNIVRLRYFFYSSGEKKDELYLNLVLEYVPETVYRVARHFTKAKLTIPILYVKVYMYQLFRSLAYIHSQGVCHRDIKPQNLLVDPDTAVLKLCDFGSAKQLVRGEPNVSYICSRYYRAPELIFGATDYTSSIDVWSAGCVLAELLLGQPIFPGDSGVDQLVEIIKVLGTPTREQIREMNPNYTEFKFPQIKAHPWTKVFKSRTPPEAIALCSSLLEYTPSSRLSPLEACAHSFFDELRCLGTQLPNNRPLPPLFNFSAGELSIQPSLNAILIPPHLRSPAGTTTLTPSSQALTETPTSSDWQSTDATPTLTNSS
Chain of Fibroblast growth factor receptor 1 (P11362 whole entry): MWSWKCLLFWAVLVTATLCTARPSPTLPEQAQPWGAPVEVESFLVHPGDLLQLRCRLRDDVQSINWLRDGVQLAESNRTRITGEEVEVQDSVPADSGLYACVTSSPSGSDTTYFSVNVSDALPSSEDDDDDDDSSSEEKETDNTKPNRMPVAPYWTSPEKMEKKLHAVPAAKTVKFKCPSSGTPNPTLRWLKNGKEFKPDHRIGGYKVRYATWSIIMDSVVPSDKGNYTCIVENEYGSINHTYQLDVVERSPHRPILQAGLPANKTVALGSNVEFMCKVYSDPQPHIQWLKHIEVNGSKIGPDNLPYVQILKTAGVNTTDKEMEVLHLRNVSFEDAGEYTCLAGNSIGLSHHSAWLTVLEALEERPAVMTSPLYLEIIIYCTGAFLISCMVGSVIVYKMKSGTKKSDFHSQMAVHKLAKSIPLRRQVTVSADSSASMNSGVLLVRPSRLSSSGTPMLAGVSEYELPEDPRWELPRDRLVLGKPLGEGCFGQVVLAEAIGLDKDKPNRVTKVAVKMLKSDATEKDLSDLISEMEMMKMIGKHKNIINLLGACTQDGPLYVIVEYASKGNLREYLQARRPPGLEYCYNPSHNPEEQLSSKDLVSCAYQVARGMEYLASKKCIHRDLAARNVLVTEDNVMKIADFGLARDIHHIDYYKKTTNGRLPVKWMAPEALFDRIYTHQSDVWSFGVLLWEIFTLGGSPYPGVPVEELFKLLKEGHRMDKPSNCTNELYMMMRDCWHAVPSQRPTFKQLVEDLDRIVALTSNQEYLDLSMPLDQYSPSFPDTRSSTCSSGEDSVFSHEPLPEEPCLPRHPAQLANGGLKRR
Chain of Dual specificity protein kinase CLK2 (P49760 whole entry): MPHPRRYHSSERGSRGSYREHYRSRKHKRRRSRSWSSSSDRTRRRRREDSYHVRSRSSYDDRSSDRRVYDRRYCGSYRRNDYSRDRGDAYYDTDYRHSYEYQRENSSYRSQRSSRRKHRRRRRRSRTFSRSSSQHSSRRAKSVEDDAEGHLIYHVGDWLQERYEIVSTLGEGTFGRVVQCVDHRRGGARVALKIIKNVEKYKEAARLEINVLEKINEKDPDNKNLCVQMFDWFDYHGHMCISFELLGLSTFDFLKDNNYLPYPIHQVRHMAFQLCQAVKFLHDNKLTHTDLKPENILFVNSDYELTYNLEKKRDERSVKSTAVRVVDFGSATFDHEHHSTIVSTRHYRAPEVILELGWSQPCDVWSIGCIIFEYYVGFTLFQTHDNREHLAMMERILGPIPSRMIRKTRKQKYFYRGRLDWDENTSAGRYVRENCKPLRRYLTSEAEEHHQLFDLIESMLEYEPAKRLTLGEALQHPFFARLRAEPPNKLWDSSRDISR
Chain of Cyclin-dependent kinase 7 (P50613 whole entry): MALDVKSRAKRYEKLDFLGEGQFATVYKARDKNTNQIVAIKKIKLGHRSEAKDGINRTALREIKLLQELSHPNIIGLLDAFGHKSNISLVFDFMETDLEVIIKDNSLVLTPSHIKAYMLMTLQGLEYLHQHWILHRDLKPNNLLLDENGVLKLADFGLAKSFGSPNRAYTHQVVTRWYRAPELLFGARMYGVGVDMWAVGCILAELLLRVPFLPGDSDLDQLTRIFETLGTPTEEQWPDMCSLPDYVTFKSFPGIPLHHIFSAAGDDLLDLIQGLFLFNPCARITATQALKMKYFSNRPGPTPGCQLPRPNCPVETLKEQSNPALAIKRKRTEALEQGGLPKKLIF
Chain of Death-associated protein kinase 3 (O43293 whole entry): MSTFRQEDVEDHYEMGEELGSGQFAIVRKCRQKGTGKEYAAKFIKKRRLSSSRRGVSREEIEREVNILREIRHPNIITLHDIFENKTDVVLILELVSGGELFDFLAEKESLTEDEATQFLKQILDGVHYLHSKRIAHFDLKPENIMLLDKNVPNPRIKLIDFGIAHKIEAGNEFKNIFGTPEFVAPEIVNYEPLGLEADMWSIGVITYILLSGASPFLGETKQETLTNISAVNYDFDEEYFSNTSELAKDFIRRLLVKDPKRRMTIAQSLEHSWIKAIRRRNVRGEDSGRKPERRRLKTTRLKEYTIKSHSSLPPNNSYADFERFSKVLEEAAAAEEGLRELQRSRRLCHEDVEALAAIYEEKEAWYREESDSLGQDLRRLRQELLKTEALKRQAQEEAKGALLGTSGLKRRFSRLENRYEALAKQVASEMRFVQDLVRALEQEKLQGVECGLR
Chain of Macrophage-stimulating protein receptor (Q04912 25-304 limits assumed): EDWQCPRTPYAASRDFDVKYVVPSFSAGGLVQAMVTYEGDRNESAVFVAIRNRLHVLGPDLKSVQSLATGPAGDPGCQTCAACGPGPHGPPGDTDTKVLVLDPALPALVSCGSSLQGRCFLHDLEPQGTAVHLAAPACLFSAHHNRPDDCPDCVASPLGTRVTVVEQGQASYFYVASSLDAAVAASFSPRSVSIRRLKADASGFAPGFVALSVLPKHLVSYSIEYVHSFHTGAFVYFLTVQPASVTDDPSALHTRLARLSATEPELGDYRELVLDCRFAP
Chain of Macrophage-stimulating protein receptor (Q04912 310-1400 limits assumed): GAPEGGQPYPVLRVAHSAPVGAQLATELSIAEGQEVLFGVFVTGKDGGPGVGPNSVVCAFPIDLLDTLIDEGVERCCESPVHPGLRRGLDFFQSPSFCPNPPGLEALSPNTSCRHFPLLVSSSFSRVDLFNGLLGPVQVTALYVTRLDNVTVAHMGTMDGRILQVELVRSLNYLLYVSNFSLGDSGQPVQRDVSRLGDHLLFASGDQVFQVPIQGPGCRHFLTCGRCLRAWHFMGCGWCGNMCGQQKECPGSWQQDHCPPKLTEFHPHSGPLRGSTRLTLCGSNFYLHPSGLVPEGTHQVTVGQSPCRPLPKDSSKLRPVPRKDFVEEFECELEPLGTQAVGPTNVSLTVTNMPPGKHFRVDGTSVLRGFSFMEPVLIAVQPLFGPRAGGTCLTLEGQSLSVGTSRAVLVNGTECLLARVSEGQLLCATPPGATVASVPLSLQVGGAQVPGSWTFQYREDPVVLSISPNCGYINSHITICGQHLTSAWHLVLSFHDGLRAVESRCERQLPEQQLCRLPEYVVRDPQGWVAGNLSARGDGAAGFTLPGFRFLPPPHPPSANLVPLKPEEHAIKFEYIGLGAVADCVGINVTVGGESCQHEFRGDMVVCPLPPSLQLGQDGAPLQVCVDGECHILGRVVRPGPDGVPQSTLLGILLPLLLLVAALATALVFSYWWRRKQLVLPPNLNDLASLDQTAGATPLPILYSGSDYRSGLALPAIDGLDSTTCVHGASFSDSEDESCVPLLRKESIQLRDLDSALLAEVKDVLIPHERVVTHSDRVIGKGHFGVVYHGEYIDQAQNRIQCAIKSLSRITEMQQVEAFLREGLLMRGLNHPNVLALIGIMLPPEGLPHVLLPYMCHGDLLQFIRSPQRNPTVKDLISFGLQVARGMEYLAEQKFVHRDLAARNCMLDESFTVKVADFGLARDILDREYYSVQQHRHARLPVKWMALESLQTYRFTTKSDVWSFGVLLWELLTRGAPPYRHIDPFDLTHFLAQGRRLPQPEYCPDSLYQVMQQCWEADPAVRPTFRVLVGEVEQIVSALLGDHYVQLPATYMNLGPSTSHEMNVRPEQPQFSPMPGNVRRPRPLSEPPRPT

In general, Ki refers to the dissociation constant of the complex between target and ligand, obtained from inhibition or displacement. Usually pKi stands for the negative decadic logarithm of the Ki, by convention in mol/L. For `OC1CCC(Nc2nc(Cl)cc(-c3c[nH]c4ncccc34)n2)CC1` (stereo unspecified), the Ki was 0.0631 µM (active) in [1]; 0.0631 µM (active) in experiment [2]; 0.158 µM (active) in [3]; 0.000794 µM (active) in experiment [4]; 0.398 µM (active) in [5]; 0.0794 µM (active) in experiment [6]. The Ki is 0.398 µM (active) in experiment [7]; > 0.794 µM (inactive) in [8]; 0.631 µM (active) in experiment [9]; > 2 µM (inactive) in experiment [10]; > 3.16 µM (inactive) in [11]; 0.1 µM (active) in experiment [12]. The Ki in [13] is 2 µM (active); in experiment [14], 0.00794 µM (active); in experiment [15], > 0.00316 µM (inactive); in experiment [16] it was 0.0126 µM (active); in experiment [17] it was 0.251 µM (active). In addition, the pKi in [1] came out at 7.2; in experiment [2] it was 7.2; in [3], 6.8; in experiment [4], 9.1; in experiment [5], 6.4; in experiment [6], 7.1. Besides, the pKi is on record as 6.4 in [7]; 6.2 in [9]; 7 in [12]; 5.7 in experiment [13]; 8.1 in [14]; 7.9 in experiment [16]. Also, the pKi in [17] came out at 6.6.
What is called EC50 is the concentration at which the effect is half-maximal. As usually defined, the IC50 is the concentration that gives 50% inhibition. As to `O=C(COC(=O)c1ccc([N+](=O)[O-])s1)Nc1ccc(F)cc1`, the EC50 in [18] is > 104 µM (inactive). The IC50 in experiment [19] was 64.2 µM (inactive).
`COc1cccc(CNC(=O)c2cnc(-c3ccncc3)nc2)c1`: the Ki was > 3.98 µM (inactive) in experiment [1]; > 3.98 µM (inactive) in experiment [2]; > 7.94 µM (inactive) in experiment [3]; > 3.98 µM (inactive) in experiment [4]; > 3.98 µM (inactive) in [5]; > 5.01 µM (inactive) in experiment [6]. For the same compound, the Ki in experiment [7] was > 3.16 µM (inactive); in experiment [8], > 6.31 µM (inactive); in experiment [9], > 3.98 µM (inactive); in experiment [10], > 3.16 µM (inactive); in [11] it was > 2.51 µM (inactive); in [12] it was > 3.98 µM (inactive). For the same compound, the Ki in experiment [13] was > 3.98 µM (inactive); in experiment [14], > 3.98 µM (inactive); in [15], > 5.01 µM (inactive); in experiment [16], > 3.16 µM (inactive); in [17], > 3.98 µM (inactive).
`CCN(CC)CCCC(C)n1c2nc(=O)[nH]c(=O)c-2nc2cc(Cl)ccc21` (stereo unspecified): the EC50 in experiment [18] is 32.9 µM (inactive). Also, the IC50 in experiment [19] is 10.5 µM (inactive).
